O=[N+]([O-])O.c1ccc2c(CC3=NCCN3)cccc2c1
solubility (mole fraction)
Settings	278.15 K	283.15 K	288.15 K	293.15 K	298.15 K	303.15 K	308.15 K	313.15 K	318.15 K	323.15 K
in 2-methoxyethanol	0.0347	0.04	0.046	0.0515	0.0601	0.0662	0.0769	0.0883	0.101	0.115
in ethylene glycol	0.0168	0.0212	0.0257	0.03	0.0359	0.0428	0.0506	0.061	0.0704	0.0823
in isopropanol	0.000577	0.000763	0.00101	0.00132	0.00161	0.00206	0.00258	0.00327	0.00389	0.00489
in methanol	0.0104	0.013	0.0155	0.0193	0.0234	0.029	0.0368	0.0473	0.057	0.0705
